TGI and GI50 data for twelve molecules are collected here from PubChem BioAssay (NCI).

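1) Cells in 96-well plates. 2) Compound, 48 h, 5 concentrations. 3) Linear interpolation between surrounding doses. 4) Unreached endpoint = highest concentration. GI50 = concentration required for 50% inhibition of growth. The concentration for full growth arrest is given as TGI.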

Among the test systems are TK-10 renal; NCI-H522 lung; RXF 393 renal; SW-620 colon; T-47D breast; CAKI-1 renal; OVCAR-3 ovarian; MDA-MB-435; K-562 leukemia; HCT-15 colon.
What all share (assay): NCI anticancer screen, dose series, 48 h

As for `C=C(C)[C@@H]1CCC2=C[C@H](CC(C)=CC3=CC(C)=C(O3)[C@@H]1OC)OC2=O`, the TGI with TK-10 renal was over 100 µM; in the assay on NCI-H522 lung it was over 100 µM; in the assay on RXF 393 renal it was 56.9 µM; in the assay on SW-620 colon it was over 100 µM; in the assay on T-47D breast, over 100 µM; with CAKI-1 renal it was over 100 µM. For the same molecule, the TGI in the assay with OVCAR-3 ovarian, with MDA-MB-435, in the assay with K-562 leukemia and with HCT-15 colon was over 100 µM each time.

With `Cn1c(=O)c2c(nc(Nc3ccc(Cl)cc3)n3c(=O)n(-c4ccccc4)c(=O)n23)n(C)c1=O`, the TGI in the assay on TK-10 renal, with NCI-H522 lung, with RXF 393 renal, with SW-620 colon, with T-47D breast and in the assay with CAKI-1 renal was over 100 µM each time. Further, the TGI in the assay with OVCAR-3 ovarian, in the assay on MDA-MB-435, in the assay on K-562 leukemia and in the assay on HCT-15 colon was over 100 µM throughout.

With `CCCCCCCCCCCCCCCCCCOCC(COP(=O)([O-])OCC[N+](C)(C)C)OC` (stereo not given), the TGI in the assay with TK-10 renal was 41.5 µM; with NCI-H522 lung, 32.7 µM; with RXF 393 renal it was 42.2 µM; in the assay on SW-620 colon it was 47.9 µM; in the assay with T-47D breast, over 100 µM; with CAKI-1 renal, 44.3 µM. Further, the TGI in the assay with OVCAR-3 ovarian was 54.5 µM; in the assay with MDA-MB-435, over 100 µM; in the assay with K-562 leukemia, 75.2 µM; in the assay with HCT-15 colon, 11.3 µM.

For `CC1(C)CCC(=O)NC1CC(=O)CC1NC(=O)CCC1(C)C` (stereo not given), the TGI in the assay on TK-10 renal, in the assay on NCI-H522 lung, with RXF 393 renal, with SW-620 colon, in the assay on T-47D breast and with CAKI-1 renal was over 100 µM each time. For the same molecule, the TGI in the assay on OVCAR-3 ovarian, with MDA-MB-435, in the assay on K-562 leukemia and in the assay on HCT-15 colon was over 100 µM throughout.

On to `Clc1nc(Cl)c(CBr)c(Cl)n1`, for which the TGI in the assay with TK-10 renal came out at 16.9 µM; in the assay with NCI-H522 lung it was 2.92 µM; with RXF 393 renal it was 21.4 µM; with SW-620 colon it was 3.99 µM; with T-47D breast, 36.1 µM; in the assay with CAKI-1 renal, 23.3 µM. Further, the TGI in the assay with OVCAR-3 ovarian is 13.3 µM; in the assay with MDA-MB-435 it was 17 µM; in the assay on K-562 leukemia it was over 23.5 µM; in the assay on HCT-15 colon, 7.91 µM.

Turning to `COc1cc2c(cc1OCCCC(=O)Nc1cc(C(=O)NCCCN(C)C)n(C)n1)N=CC1CCCN1C2=O` (stereo not given), the TGI is 14.9 µM in the assay on TK-10 renal; 15.1 µM in the assay on NCI-H522 lung; over 75.6 µM in the assay with RXF 393 renal; over 25 µM with SW-620 colon; over 100 µM with T-47D breast; 50.9 µM with CAKI-1 renal. The TGI with OVCAR-3 ovarian is 74.2 µM; with MDA-MB-435 it was over 100 µM; in the assay with K-562 leukemia it was 3.8 µM; with HCT-15 colon, over 21.5 µM.

Regarding `NC1CC(=O)c2sccc21` (stereo not given), the TGI in the assay with TK-10 renal, with NCI-H522 lung, in the assay with RXF 393 renal, in the assay on SW-620 colon, in the assay on T-47D breast and in the assay on CAKI-1 renal was over 100 µM each time. For the same molecule, the TGI in the assay with OVCAR-3 ovarian, in the assay on MDA-MB-435, with K-562 leukemia and with HCT-15 colon was over 100 µM in each case.

On to `CC(=O)O[C@H]1C[C@H]2C(=S)Nc3ccccc3C(=S)N2C1`, for which the TGI in the assay on TK-10 renal, in the assay with NCI-H522 lung, in the assay with RXF 393 renal, with SW-620 colon, in the assay with T-47D breast and in the assay with CAKI-1 renal was over 100 µM each time. The TGI in the assay with OVCAR-3 ovarian, in the assay on MDA-MB-435, in the assay on K-562 leukemia and in the assay with HCT-15 colon was over 100 µM throughout.

`CC(=O)N1c2ccccc2C(C)C1c1[nH]c2ccccc2c1C` (stereo not given): the TGI in the assay on TK-10 renal was 76.1 µM; in the assay on NCI-H522 lung, 49.2 µM; in the assay on RXF 393 renal it was 28.4 µM; in the assay on SW-620 colon, over 100 µM; in the assay with T-47D breast it was 91.5 µM; in the assay on CAKI-1 renal it was 70.6 µM. Besides, the TGI is 46.1 µM in the assay with OVCAR-3 ovarian, 50.4 µM in the assay on MDA-MB-435, over 100 µM in the assay on K-562 leukemia and over 100 µM with HCT-15 colon.

As to `O=C(N/N=C\c1ccccc1)Nc1cccc2ccccc12`, the TGI is over 100 µM in the assay with TK-10 renal; over 100 µM in the assay with NCI-H522 lung; over 100 µM in the assay on RXF 393 renal; over 100 µM with SW-620 colon; 48.2 µM in the assay with T-47D breast; over 100 µM with CAKI-1 renal. The TGI in the assay with OVCAR-3 ovarian, in the assay with MDA-MB-435, in the assay on K-562 leukemia and with HCT-15 colon was over 100 µM throughout.

For `Oc1ccc(C#CCOc2ccccc2)cc1CNCCN(Cc1ccccn1)Cc1ccccn1`, the GI50 in the assay with TK-10 renal was 1.22 µM; in the assay on NCI-H522 lung it was 2.07 µM; in the assay on RXF 393 renal it was 1.49 µM; with SW-620 colon, 1.86 µM; in the assay with T-47D breast, 2.88 µM; in the assay with CAKI-1 renal, 1.33 µM. Further, the GI50 in the assay with OVCAR-3 ovarian is 1.47 µM; in the assay on MDA-MB-435, 1.82 µM; in the assay on K-562 leukemia, 2.49 µM; with HCT-15 colon, 1.13 µM. In addition, the TGI worked out at 3.06 µM in the assay with TK-10 renal; 6.67 µM in the assay with NCI-H522 lung; 2.96 µM with RXF 393 renal; 4.89 µM in the assay with SW-620 colon; 13.8 µM in the assay with T-47D breast; 2.75 µM in the assay on CAKI-1 renal. Further, the TGI came out at 3.04 µM in the assay on OVCAR-3 ovarian, 3.44 µM with MDA-MB-435, 13.8 µM with K-562 leukemia and 3.55 µM in the assay on HCT-15 colon.

With `N#Cc1nc(CCC(c2nc(C#N)c(N)o2)N2C(=O)c3ccccc3C2=O)oc1N` (stereo not given), the TGI with TK-10 renal, with NCI-H522 lung, with RXF 393 renal, in the assay on SW-620 colon, in the assay with T-47D breast and in the assay with CAKI-1 renal was over 100 µM in each case. Moreover, the TGI in the assay with OVCAR-3 ovarian, in the assay with MDA-MB-435, in the assay with K-562 leukemia and with HCT-15 colon was over 100 µM each time.
